The values that follow come from paper PMC6151956 (Slas Discovery, 2018).

Several values for one entry are separate records, joined by “and”; a condition that tells them apart may be missing. Identical values can stand only once. Like-named read-outs stand apart in the source and are kept apart here.

Assay [1] addresses BTK in Ramos B cells (Homo sapiens, UniProt Q06187). Nature of the assay: TR-FRET BTK occupancy assay in Ramos B cells. Format: cell-based.
The conditions of assay [2]: phase 1 clinical study, cited from earlier work.
Assay [3] has as its target T1, BTK in whole blood (Homo sapiens, UniProt Q06187). Nature of the assay: TR-FRET BTK occupancy assay in whole blood from healthy volunteers. The class given is cell-based.
Assay [4] deals with BTK in BMMCs and PBMCs from patients with CLL (Homo sapiens, UniProt Q06187). The class given is cell-based. Conditions: 110 nM tirabrutinib, 2 h ex vivo.
BTK in BMMCs and PBMCs from patients with CLL, sequence (Q06187 whole entry): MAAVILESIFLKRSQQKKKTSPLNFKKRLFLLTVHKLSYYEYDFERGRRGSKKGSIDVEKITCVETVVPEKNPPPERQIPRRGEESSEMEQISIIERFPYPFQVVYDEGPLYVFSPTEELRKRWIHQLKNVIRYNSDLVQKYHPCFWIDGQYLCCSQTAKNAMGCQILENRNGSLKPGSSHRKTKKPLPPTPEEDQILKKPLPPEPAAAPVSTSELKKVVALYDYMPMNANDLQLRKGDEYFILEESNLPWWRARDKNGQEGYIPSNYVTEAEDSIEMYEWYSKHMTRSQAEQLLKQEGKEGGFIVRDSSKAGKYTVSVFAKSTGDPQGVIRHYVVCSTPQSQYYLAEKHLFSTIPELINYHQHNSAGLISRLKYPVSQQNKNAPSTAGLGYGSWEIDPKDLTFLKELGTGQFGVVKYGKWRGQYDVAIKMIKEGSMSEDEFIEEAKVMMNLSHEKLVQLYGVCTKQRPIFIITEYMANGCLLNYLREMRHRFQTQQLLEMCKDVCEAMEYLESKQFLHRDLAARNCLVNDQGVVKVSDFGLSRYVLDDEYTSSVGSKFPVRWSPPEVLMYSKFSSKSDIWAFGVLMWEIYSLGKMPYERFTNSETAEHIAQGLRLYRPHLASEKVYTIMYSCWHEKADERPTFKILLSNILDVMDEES
Assay [5] deals with BTK in human PBMCs (Homo sapiens, UniProt Q06187). The experiment in a line: TR-FRET BTK occupancy assay in purified human PBMCs from healthy volunteers. Format: cell-based.
BTK in human PBMCs, sequence (Q06187 whole entry): as above
Assay [6] has as its target T1, BTK in whole blood. The experiment in a line: Stability of tirabrutinib-treated whole blood. The class given is cell-based.
The target in assay [7] is Recombinant full-length human BTK (rBTK) (Homo sapiens, UniProt Q06187). Nature of the assay: TR-FRET BTK occupancy assay on recombinant BTK. Format: binding.
Recombinant full-length human BTK (rBTK), sequence (Q06187 whole entry): as above
Assay [8] concerns TEC. To be noted: cited from earlier work.
Assay [9] deals with TEC. Conditions: cited from earlier work. The source holds these as a separate data set.
Assay [10] has as its system interleukin-2-inducible T-cell kinase (ITK). Conditions: cited from earlier work.
The subject of assay [11] is epidermal growth factor kinase (EGFR). Conditions: cited from earlier work.

T1 sequence (Q06187 whole entry): as above
BTK in Ramos B cells, sequence (Q06187 whole entry): as above

Take `CC#CC(=O)N1CC[C@@H](n2c(=O)n(-c3ccc(Oc4ccccc4)cc3)c3c(N)ncnc32)C1` [tirabrutinib, Tirabrutinib]: the “concentration at which full BTK occupancy was achieved” value in assay [1] was 500 to 1000 nM; in [3], 500 to 1000 nM; in assay [5], 500 to 1000 nM; in assay [7], 100 nM. In assay [2] (CLL), the “response rate in CLL” value is given as 96%. The “response rate in MCL” value in assay [2] (MCL) is 92%. For the same molecule, the “response in nongerminal center DLBCL” value in assay [2] (nongerminal center DLBCL) is 35%. In addition, the BTK occupancy in [4] is ~100% and > 80%. Moreover, the “BTK occupancy on storage at 4 °C” value in assay [6] (whole blood pretreated 2 h, then stored at 4 °C for up to 48 h) is “maintained at the same level for up to 48 h”. Further, in [6] (whole blood pretreated 2 h, then stored at room temperature (24 h and more)), the “BTK occupancy on storage at room temperature” value is on record as “significantly higher target occupancy”.

Take `C=CC(=O)N1CCC[C@@H](n2nc(-c3ccc(Oc4ccccc4)cc3)c3c(N)ncnc32)C1` [ibrutinib]: the “BTK selectivity versus TEC” value in assay [8] is 156 fold. Besides, the “Selectivity for BTK over TEC” value in assay [9] is on record as 5.6 fold. The “BTK selectivity versus ITK” value in assay [10] is 21 fold. The “BTK selectivity versus EGFR” value in assay [11] is 11 fold.

Take `CC#CC(=O)N1CCC[C@H]1c1nc(-c2ccc(C(=O)Nc3ccccn3)cc2)c2c(N)nccn12` [acalabrutinib, reference compound]: in [6], the “BTK occupancy on storage at room temperature” value was “effect of room temperature storage was also observed”.
